Legend:
mouse ATB^0,+ [1] = molecular target: T1, mouse ATB^0,+ (Mus musculus, UniProt Q9JMA9); test: Inhibition of ATB^0,+-mediated glycine uptake in HRPE cells expressing cloned mouse ATB^0,+; type: cell-based; conditions: for inhibition of ATB^0,+-specific glycine uptake: glycine 10 μM, inhibitor 1 mM, 30 min, NaCl, HRPE cells
T1 sequence (Q9JMA9 1-638): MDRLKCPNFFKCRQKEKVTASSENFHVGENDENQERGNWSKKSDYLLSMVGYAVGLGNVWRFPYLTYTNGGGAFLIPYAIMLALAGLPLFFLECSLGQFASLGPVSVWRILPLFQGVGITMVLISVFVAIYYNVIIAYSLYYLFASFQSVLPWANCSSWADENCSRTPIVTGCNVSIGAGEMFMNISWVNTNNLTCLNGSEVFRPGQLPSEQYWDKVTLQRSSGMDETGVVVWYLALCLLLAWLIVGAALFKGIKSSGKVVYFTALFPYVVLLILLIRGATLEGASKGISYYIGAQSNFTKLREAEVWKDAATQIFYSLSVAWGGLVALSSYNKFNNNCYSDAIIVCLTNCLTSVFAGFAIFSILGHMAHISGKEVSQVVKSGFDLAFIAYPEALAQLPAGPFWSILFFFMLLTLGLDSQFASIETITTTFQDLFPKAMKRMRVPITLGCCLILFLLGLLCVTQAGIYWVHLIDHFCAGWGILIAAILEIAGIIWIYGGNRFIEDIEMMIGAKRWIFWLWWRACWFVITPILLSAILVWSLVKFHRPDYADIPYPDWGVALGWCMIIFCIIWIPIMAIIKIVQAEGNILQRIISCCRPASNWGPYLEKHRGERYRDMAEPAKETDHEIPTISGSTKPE

mouse ATB^0,+ [2] = molecular target: T1, mouse ATB^0,+; test: Substrate-induced inward currents in X. laevis oocytes expressing mouse ATB^0,+ (two-microelectrode voltage clamp); type: cell-based; conditions: for inward currents induced in ATB^0,+-expressing oocytes: 2.5 mM; for inward currents induced in ATB^0,+-expressing oocytes / Michaelis constant (K0.5) of substrate-induced currents: voltage clamp, NaCl; for Michaelis constant (K0.5) of substrate-induced currents: saturation kinetics
Protocol: Capped cRNA from the cloned mouse or human ATB^0,+ cDNA was synthesized using the mMESSAGE mMACHTNE kit (Ambion, Austin, Tex., U.S.A.). Mature oocytes (stage IV or V) from X. laevis were injected with 50 ng of cRNA. Uninjected oocytes served as controls. The oocytes were used for electrophysiological studies 3-6 days after cRNA injection. Electrophysiological studies were performed by the two-microelectrode voltage-clamp method (Nakanishi et al., 2001, J. Physiol. 532, 297-304). Oocytes were superfused with an NaCl-containing buffer (100 mM NaCl, 2 mM KCl, 1 mM MgCl2, 1 mM CaCl2, 3 mM Hepes, 3 mM Mes and 3 mM Tris, pH 7.5), followed by the same buffer containing tryptophan derivatives. The membrane potential was clamped at −50 mV. The differences between the steady-state currents measured in the presence and absence of substrates were considered as the substrate-induced currents. In the analysis of the saturation kinetics of substrate-induced currents, the kinetic parameter K0.5 (i.e. substrate concentration necessary for induction of half-maximal current) was calculated by fitting the values of the substrate-induced currents to the Michaelis-Menten equation. The Na^+ and Cl^− activation kinetics of substrate-induced currents were analysed by measuring the substrate-specific currents in the presence of increasing concentrations of Na^+ (concentration of Cl^− kept constant at 100 mM) or in the presence of increasing concentrations of Cl^− (concentration of Na^+ kept constant at 100 mM). In these experiments, the composition of the superfusion buffer was modified to contain 2 mM potassium gluconate, 1 mM MgSO4 and 1 mM calcium gluconate in place of KCl, MgCl2 and CaCl2 respectively. The data from these experiments were analysed by the Hill equation to determine the Hill coefficient (h; number of Na^+ and Cl^− ions involved in the activation process). The kinetic parameters were determined by using the commercially available computer program Sigma Plot, version 6.0 (SPSS, Chicago, Ill., U.S.A.). Uninjected oocytes were used to determine the currents induced by tryptophan derivatives due to entry via transporters that may be constitutively expressed in the oocytes. At a concentration of 2.5 mM, the currents induced by these compounds were in the range of 0-3 nA in uninjected oocytes. These currents were less than 2% of the corresponding currents induced in ATB^0,+ cRNA-injected oocytes. Therefore the endogenous currents associated with the constitutively expressed transporters were not considered in the analysis of kinetic parameters of ATB^0,+ transport activity.
The above studies with the mammalian cell expression system have focused on the interaction of 1-methyltryptophan and other tryptophan derivatives with ATB^0,+ by examining the effects of these compounds on the transporter-mediated glycine uptake. These studies have shown convincingly that 1-methyltryptophan interacts with ATB^0,+, with the L-isomer having much higher affinity for the transporter than the D-isomer. However, these studies have not shown whether or not 1-methyltryptophan is actually a transportable substrate for ATB^0,+. It is possible that 1-methyltryptophan inhibits ATB^0,+-mediated glycine uptake simply by blocking the interaction of glycine with the substrate-binding site of the transporter, rather than by actually competing with glycine for the transport process. […] We wanted to know whether 1-methyltryptophan can actually be transported by ATB^0,+. For this, we used the X. laevis oocyte expression system. Since the transport process mediated by ATB^0,+ is electrogenic, exposure of ATB^0,+-expressing oocytes to transportable substrates will induce an inward current in an Na^+- and Cl^−-dependent manner. Exposure of the same oocytes to blockers will interfere with currents induced by transportable substrates, but will not induce currents by themselves. […]

[3] = 1 mM substrate, Cl^- fixed at 100 mM
[4] = 1 mM substrate, Na^+ fixed at 100 mM

| SMILES | inhibition of ATB^0,+-specific glycine uptake (mouse ATB^0,+ [1]) | inward currents induced in ATB^0,+-expressing oocytes (mouse ATB^0,+ [2]) | IC50 (mouse ATB^0,+ [1]) | Michaelis constant (K0.5) of substrate-induced currents (mouse ATB^0,+ [2]) | potency of L-isomer relative to D-isomer as inhibitor of ATB^0,+-mediated glycine uptake (mouse ATB^0,+ [1]; 1-methyl-L-tryptophan versus 1-methyl-D-tryptophan) | Hill coefficient (h), Na^+-activation kinetics of induced currents (mouse ATB^0,+ [2]; [3]) | Michaelis constant (K0.5) for Na^+ (mouse ATB^0,+ [2]; [3]) | Hill coefficient, Cl^- -activation kinetics of induced currents (mouse ATB^0,+ [2]; [4]) | Michaelis constant for Cl^- (mouse ATB^0,+ [2]; [4]) |
| --- | --- | --- | --- | --- | --- | --- | --- | --- | --- |
| Cn1cc(CC(N)C(=O)O)c2ccccc21 (racemic) [1-methyl-DL-tryptophan] | inhibited | induced marked currents | – | – | – | – | – | – | – |
| CC(N)(Cc1c[nH]c2ccccc12)C(=O)O (racemic) [α-methyl-DL-tryptophan] | inhibited | failed to induce currents | – | – | – | – | – | – | – |
| Cn1cc(C[C@@H](N)C(=O)O)c2ccccc21 [1-methyl-D-tryptophan] | – | – | 780 ± 225 µM | 462 ± 78 µM | – | – | – | – | – |
| Cn1cc(C[C@H](N)C(=O)O)c2ccccc21 [1-methyl-L-tryptophan] | – | – | 23 ± 5 µM | 93 ± 16 µM | at least 35 fold | 1.9±0.2 | 27 ± 2 mM | 1.2±0.2 | 2.1 ± 0.3 mM |

— patent US8436039B2, “Inhibitors of the ATB(0,+) transporter and uses thereof” (Georgia Health Sciences University Research Institute, Inc., priority 2008, dated 2013)
